A value given as a limit tells only on which side of the number the result lay.

The text below walks through data of US8642613B2, “Treatment for leukemia and idiopathic aplastic anemia” (Sphingomonas Research Partners, L.P., priority 2008, dated 2014).

The subject of this series is acute lymphocytic leukemia (ALL), Philadelphia chromosome positive, with bone marrow failure. Kind of series: Rifampicin treatment of a single patient with relapsed acute lymphocytic leukemia and end stage bone marrow failure. The class given is in vivo, human. Here is the method:
The single leukemia patient studied, and reported here, was a person who presented with acute lymphocytic leukemia (ALL), Philadelphia chromosome positive, who was converted to remission with a stem cell transplant from a matching sibling. Within one year, the leukemia reverted to an active form, and they were treated with all anti-leukemic agents known, and these included several experimental agents from MD Anderson Hospital in Houston.
They developed diabetes associated with steroids, and right maxillary sinus infection with a species of Mucorales. They underwent debridement of their sinus, with removal of bone and tissue up to the floor of the […] orbit. The sense of smell had been lost during the mucor infection. Their condition worsened in the Houston hospital. They developed bone marrow failure, and was transferred by air ambulance in a bed to their home in the Chicago area with instructions for terminal hospice care. They were bedridden, unable to sit up, and appeared moribund.
The laboratory findings at that time included:
The present inventor, who is a physician, is a cousin of the patient. After informed consent, which included a description of the experience of the inventor, the patient was started on rifampicin (rifampin) 600 mg daily not within 2½ hours of meals. This treatment was not part of any protocol, but was a private request to the inventor.

[1] abbreviates: single ALL patient, rifampicin 600 mg daily.
Setting [2] is: single ALL patient, rifampicin 600 mg daily, time after start of treatment.

As to Rifampicin, the “white cell levels (mature leukocytes and lymphocytes)” value (approximately 5 weeks after treatment began, rifampicin 600 mg daily) was “continued at normal levels”. For the same substance, the “platelet counts over time (FIG. 3)” value (patient presenting with acute lymphocytic leukemia treated with rifampicin) was “increase in platelet counts over time”. The “white cell counts over time (FIG. 4)” value (same patient and time course as FIG. 3) is listed as “increase in white cell counts”. Under setting [1], the “clinical condition (strength, sitting, standing, short walks)” value was “marked clinical improvement” and the “platelet drop leading to temporary discontinuation (suspected platelet agglutination)” value is “transient drop in platelets”. Under setting [2], the “time until patient began to show bone marrow recovery” value is reported as at most 2 weeks and the “time until significant parameters of bone marrow remission had developed” value is at most 6 weeks. Under “single ALL patient, rifampicin 600 mg daily, 11K before treatment”, the “platelets, level reached on treatment” value is listed as 48 K.
